Assay results as given in publication PMC8630693 (2021).

Experiments:
[1] = test system: BCL-2 RT template (RNA, G4) UAAUACGACUCACUAUAGGGCAUGCCAAGGGGGAAACACCAGAAUCAAGUGUUCCGCGUGAUUGAAGACACCCCCUCGUCCAAGAAUGCAAAGCACAUCCAGGGGGCCGUGGGGUGGGAGCUGGGGAUAAAAUAGCUGGAUUAUAACUCCUCUUCUUUCUCUCGAGAGGUGCCGUUGGCCCCCGUUGCUUUUCCUCUGGGAAGGAUG; assay: reverse transcriptase stop assay, qPCR; conditions: MgCl2 (concentration not stated), 10 µM compound, 100 nM template, 37°C
[2] = test system: NRAS RNA G-quadruplex (SPR) (RNA, G4) UGUGGGAGGGGCGGGUCUGGG; assay: SPR; conditions: 100 mM KCl; 10 mM HEPES pH 7.4, 25°C; highest OMT 200 µM
[3] = test system: mut 1 (RNA, G4) GGAUGAGUGGGAGGAGG; assay: SPR; conditions: 100 mM KCl; 10 mM HEPES pH 7.4, 25°C; printed kd/ka gives 3.9e-3
[4] = test system: RNA G-quadruplex (VEGF), unlabelled (RNA, G4) GGAGGAGGGGGAGGAGG; assay: ESI-MS; conditions: 100 mM trimethylammonium acetate; 50% methanol; 10 µM RNA, 30 µM OMT
[5] = test system: DNA double strand (DNA, duplex) GCGCGCGCGCGCGCGCGCGCGCGC; assay: UV melting; conditions: 100 mM KCl/NaCl (so in the source); 10 mM Tris pH 7.4
[6] = test system: RNA G-quadruplex (VEGF), unlabelled (RNA, G4) GGAGGAGGGGGAGGAGG; assay: CD melting; conditions: 100 mM KCl/NaCl (so in the source); 10 mM Tris pH 7.4; 3:1 OMT/G-quadruplex; 10 µM RNA; Tm 72.7 to 76.3
[7] = test system: mut 3 (RNA, G4) GGAGGAGGGUGAGUAGG; assay: SPR; conditions: 100 mM KCl; 10 mM HEPES pH 7.4, 25°C; highest OMT 200 µM
[8] = test system: mut 2 (RNA, G4) UGAGGAGGGUGAGGAGG; assay: SPR; conditions: 100 mM KCl; 10 mM HEPES pH 7.4, 25°C; printed kd/ka gives 1.01e-2
[9] = test system: BCL-2 RNA G-quadruplex (SPR) (RNA, G4) GGGGGCCGUGGGGUGGGAGCUGGGG; assay: SPR; conditions: 100 mM KCl; 10 mM HEPES pH 7.4, 25°C; highest OMT 200 µM
[10] = test system: mut 4 (RNA, G4) UGAGGAGGGGGAGGAUG; assay: SPR; conditions: 100 mM KCl; 10 mM HEPES pH 7.4, 25°C; highest OMT 200 µM

| ΔCt ([1]; not a binding constant) | binding [2] | KD [3] [µM] | binding [4] | binding [5] | ΔTm [6] [°C] | binding [1] | binding [7] | KD [8] [µM] | binding [9] | binding [10] | Compound |
| --- | --- | --- | --- | --- | --- | --- | --- | --- | --- | --- | --- |
| > 2 | – | – | – | – | – | – | – | – | – | – | C[n+]1ccc(-c2c3nc(c(-c4cc[n+](C)cc4)c4ccc([nH]4)c(-c4cc[n+](C)cc4)c4nc(c(-c5cc[n+](C)cc5)c5ccc2[nH]5)C=C4)C=C3)cc1 |
| – | no | 39 | yes | no | 3.6 | no | no | 101 | no | no | O=C1CCC[C@@H]2[C@H]3CCC[N+]4([O-])CCC[C@@H](CN12)[C@@H]34 (some centres unmarked) |
